The values below come from patent US12171756B2, “NLRP3 modulators” (Innate Tumor Immunity, Inc., priority 2017, dated 2024).

The term EC50 denotes the midpoint of the concentration-response curve. The IC50 is the midpoint of a concentration-inhibition curve.

For one experiment, the target named is T1, human TLR8 (Homo sapiens, UniProt Q9NR97).
T1 construct: host or cells: human HEK-Blue cells (HEK293-derived) co-expressing TLR8 and an NF-kB/AP1-inducible SEAP reporter
T1 sequence (Q9NR97 27-1041): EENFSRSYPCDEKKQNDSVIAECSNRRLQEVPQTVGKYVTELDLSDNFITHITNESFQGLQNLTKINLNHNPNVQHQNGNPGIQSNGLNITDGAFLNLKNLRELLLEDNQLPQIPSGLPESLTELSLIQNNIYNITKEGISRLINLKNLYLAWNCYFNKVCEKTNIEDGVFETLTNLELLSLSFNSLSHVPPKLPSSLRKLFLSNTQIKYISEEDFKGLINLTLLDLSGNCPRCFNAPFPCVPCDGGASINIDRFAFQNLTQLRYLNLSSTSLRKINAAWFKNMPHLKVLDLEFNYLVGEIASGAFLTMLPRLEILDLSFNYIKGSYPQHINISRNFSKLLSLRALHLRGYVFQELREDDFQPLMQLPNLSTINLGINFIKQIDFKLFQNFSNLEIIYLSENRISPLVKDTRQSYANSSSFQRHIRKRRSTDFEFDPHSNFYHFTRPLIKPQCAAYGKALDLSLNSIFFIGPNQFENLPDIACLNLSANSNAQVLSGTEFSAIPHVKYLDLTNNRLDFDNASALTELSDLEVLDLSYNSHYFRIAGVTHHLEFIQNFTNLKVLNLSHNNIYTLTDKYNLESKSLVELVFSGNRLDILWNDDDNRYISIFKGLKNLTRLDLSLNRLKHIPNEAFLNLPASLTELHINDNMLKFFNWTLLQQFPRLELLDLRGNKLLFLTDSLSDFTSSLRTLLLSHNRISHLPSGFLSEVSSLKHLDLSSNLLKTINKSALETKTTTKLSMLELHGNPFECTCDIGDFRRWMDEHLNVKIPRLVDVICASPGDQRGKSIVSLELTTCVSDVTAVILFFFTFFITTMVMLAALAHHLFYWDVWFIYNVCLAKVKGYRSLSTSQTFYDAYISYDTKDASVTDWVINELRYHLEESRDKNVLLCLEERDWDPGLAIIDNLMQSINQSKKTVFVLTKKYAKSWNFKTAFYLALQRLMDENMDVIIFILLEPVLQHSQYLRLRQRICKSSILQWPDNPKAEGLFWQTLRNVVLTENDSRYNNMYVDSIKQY
Briefly: In vitro human TLR8 binding reporter assay (HEK-Blue, NF-kB/AP1-inducible SEAP). The experiment is classed as cell-based. The settings on record: HEK-Blue human TLR8 SEAP reporter cells; activity range classes; read-out: TLR8 Agonist EC50. The method in brief:
(§1)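 EC50s come from NF-kB/AP1-driven SEAP secretion in HEK-Blue cells expressing TLR7 or TLR8, measured with Quanti-Blue after an 18 h compound incubation. Maximal response is defined by a 50 μM reference standard.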
(In general: Reporter assays use an easily measured gene product as a stand-in for the process of interest.)

The target in another experiment is T2, human TLR7 (Homo sapiens, UniProt Q9NYK1).
T2 construct: host or cells: human HEK-Blue cells (HEK293-derived) co-expressing TLR7 and an NF-kB/AP1-inducible SEAP reporter
T2 sequence (Q9NYK1 27-1049): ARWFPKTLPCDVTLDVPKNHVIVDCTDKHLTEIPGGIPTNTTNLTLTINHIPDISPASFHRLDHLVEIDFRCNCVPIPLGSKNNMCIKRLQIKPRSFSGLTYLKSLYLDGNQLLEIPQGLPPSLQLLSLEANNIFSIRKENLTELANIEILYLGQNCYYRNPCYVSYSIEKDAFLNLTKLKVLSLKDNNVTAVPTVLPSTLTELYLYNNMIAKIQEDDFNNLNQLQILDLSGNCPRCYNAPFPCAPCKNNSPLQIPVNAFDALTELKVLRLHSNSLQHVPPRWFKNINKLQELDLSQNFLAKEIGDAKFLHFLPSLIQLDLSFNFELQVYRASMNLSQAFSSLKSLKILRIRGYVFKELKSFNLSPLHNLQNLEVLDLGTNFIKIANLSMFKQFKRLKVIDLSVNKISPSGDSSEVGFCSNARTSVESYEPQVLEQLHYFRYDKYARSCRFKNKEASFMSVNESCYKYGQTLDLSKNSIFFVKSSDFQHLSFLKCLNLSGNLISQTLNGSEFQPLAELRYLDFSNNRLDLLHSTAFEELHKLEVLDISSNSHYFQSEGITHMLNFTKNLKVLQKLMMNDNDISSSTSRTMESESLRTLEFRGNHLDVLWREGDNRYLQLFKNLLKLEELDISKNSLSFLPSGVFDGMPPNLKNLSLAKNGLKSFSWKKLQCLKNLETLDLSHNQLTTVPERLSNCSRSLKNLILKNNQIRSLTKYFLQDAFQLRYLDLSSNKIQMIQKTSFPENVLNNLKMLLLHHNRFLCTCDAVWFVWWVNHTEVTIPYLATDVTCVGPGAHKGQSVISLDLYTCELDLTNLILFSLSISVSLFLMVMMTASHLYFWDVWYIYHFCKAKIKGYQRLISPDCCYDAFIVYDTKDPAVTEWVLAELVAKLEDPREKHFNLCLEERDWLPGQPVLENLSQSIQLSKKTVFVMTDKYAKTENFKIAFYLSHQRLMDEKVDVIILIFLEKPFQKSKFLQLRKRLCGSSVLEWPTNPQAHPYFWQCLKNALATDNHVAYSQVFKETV
Put plainly: In vitro human TLR7 binding reporter assay (HEK-Blue, NF-kB/AP1-inducible SEAP). The format is cell-based. The settings on record: HEK-Blue human TLR7 SEAP reporter cells; activity range classes; read-out: TLR7 Agonist EC50. The method in brief: as §1

Experiment [1] has as its system IL-1β production in PMA-differentiated THP-1 cells. Briefly: Measurement of IL-1β production in PMA-differentiated THP-1 cells (ELISA, 4 hours). The format is cell-based, human. To be noted: Homo sapiens, THP-1, human IL-1β production, assayed using one or more of the described procedures, read-out: NLRP3 hIL1B IC50. The method in brief: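 IL-1β released into supernatant was measured by ELISA after a 4-hour compound exposure (final DMSO 1%, concentrations such as 100 down to 0.1 μM). Cells: THP-1 pretreated 24 h with 10 μg/ml PMA, then trypsinized and seeded at 1×10^6/ml in 2% FBS RPMI.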
Background: In an ELISA, binding on a coated surface is turned into a signal by an enzyme label.

Each structure is given as a SMILES string. Structures can show the parent of a compound that is named as a salt.

For `CC(=O)NCCCOc1cc(N)nc2cc(-c3ccn[nH]3)ccc12` [Compound 200], the EC50 on human TLR8 and at human TLR7 was greater than 100 µM throughout. In addition, the IC50 in experiment [1] stood at 1.89 µM.
For `Nc1cc(OCCn2cccn2)c2ccc(-c3ccn[nH]3)cc2n1` [Compound 201], the EC50 at human TLR8 and on human TLR7 was greater than 100 µM in each case. Further, in experiment [1], the IC50 is 5.05 µM.
In the case of `Nc1cc(OC(CO)CO)c2ccc(-c3ccn[nH]3)cc2n1` [Compound 202, 2-((2-amino-7-(1H-pyrazol-5-yl)quinolin-4-yl)oxy)propane-1,3-diol], the EC50 at human TLR8 and on human TLR7 was greater than 100 µM in each case. Also, the IC50 in experiment [1] came to 1.89 µM.
Consider `Cc1nc(C(=O)NCCNc2cc(N)nc3cc(-c4ccn[nH]4)ccc23)cs1` [Compound 203, N-(2-((2-amino-7-(1H-pyrazol-5-yl)quinolin-4-yl)amino)ethyl)-2-methylthiazole-4-carboxamide], for which the EC50 on human TLR8 and at human TLR7 was greater than 100 µM throughout. The IC50 in experiment [1] amounted to 0.19 µM.
On to `Nc1cc(NCCNC(=O)c2ccccn2)c2ccc(-c3ccn[nH]3)cc2n1` [Compound 204], for which the EC50 on human TLR8 and at human TLR7 was greater than 100 µM in each case. In experiment [1], the IC50 was 0.64 µM.
`COC(=O)NCCNc1cc(N)nc2cc(-c3ccn[nH]3)ccc12` [Compound 205, methyl (2-((2-amino-7-(1H-pyrazol-5-yl)quinolin-4-yl)amino)ethyl)carbamate]: the EC50 at human TLR8 and on human TLR7 was greater than 100 µM throughout. The IC50 in experiment [1] worked out at 1.29 µM.
For the compound `CS(=O)(=O)NCCNc1cc(N)nc2cc(-c3ccn[nH]3)ccc12` [Compound 206, N-(2-((2-amino-7-(1H-pyrazol-5-yl)quinolin-4-yl)amino)ethyl)methanesulfonamide], the EC50 on human TLR8 and on human TLR7 was greater than 100 µM each time. Besides, in experiment [1], the IC50 was 0.84 µM.
Regarding `CCNC(=O)NCCNc1cc(N)nc2cc(-c3ccn[nH]3)ccc12` [Compound 207, 1-(2-((2-amino-7-(1H-pyrazol-5-yl)quinolin-4-yl)amino)ethyl)-3-ethylurea, TFA], the EC50 at human TLR8 and at human TLR7 was greater than 100 µM in each case. For the same compound, the IC50 in experiment [1] is 1.07 µM.
Turning to `CN(C)C(=O)NCCNc1cc(N)nc2cc(-c3ccn[nH]3)ccc12` [Compound 208, 3-(2-((2-amino-7-(1H-pyrazol-5-yl)quinolin-4-yl)amino)ethyl)-1,1-dimethylurea], the EC50 on human TLR8 and at human TLR7 was greater than 100 µM in each case. The IC50 in experiment [1] was 1.55 µM.
For the compound `Cn1ccnc1C(=O)NCCCNc1cc(N)nc2cc(-c3ccn[nH]3)ccc12` [Compound 209, N-(3-((2-amino-7-(1H-pyrazol-5-yl)quinolin-4-yl)amino)propyl)-1-methyl-1H-imidazole-2-carboxamide, 2TFA], the EC50 on human TLR8 and on human TLR7 was greater than 100 µM throughout. Besides, the IC50 in experiment [1] turned out to be 1.96 µM.
For `Cc1nc(C(=O)NCCCNc2cc(N)nc3cc(-c4ccn[nH]4)ccc23)c(C)s1` [Compound 210], the EC50 on human TLR8 and on human TLR7 was greater than 100 µM throughout. The IC50 in experiment [1] was 20.8 µM.
With `Nc1cc(NCCCNC(=O)c2ccncc2)c2ccc(-c3ccn[nH]3)cc2n1` [Compound 211], the EC50 on human TLR8 and on human TLR7 was greater than 100 µM in each case. The IC50 in experiment [1] was found to be 13.5 µM.
As to `Nc1cc(NCCCNC(=O)c2cccnc2)c2ccc(-c3ccn[nH]3)cc2n1` [Compound 212], the EC50 on human TLR8 and on human TLR7 was greater than 100 µM in each case. Moreover, the IC50 in experiment [1] is 9.27 µM.
With `CC(=O)NCCCNc1cc(N)nc2cc(-c3ccn[nH]3)ccc12` [Compound 213, N-(3-((2-amino-7-(1H-pyrazol-5-yl)quinolin-4-yl)amino)propyl)acetamide, 2TFA], the EC50 at human TLR8 and at human TLR7 was greater than 100 µM throughout. Also, the IC50 in experiment [1] turned out to be 1.55 µM.
`CN(C)C(=O)NCCCNc1cc(N)nc2cc(-c3ccn[nH]3)ccc12` [Compound 214, 3-(3-((2-amino-7-(1H-pyrazol-5-yl)quinolin-4-yl)amino)propyl)-1,1-dimethylurea, 2TFA]: the EC50 on human TLR8 and at human TLR7 was greater than 100 µM each time. In addition, the IC50 in experiment [1] was 4.61 µM.
Turning to `CS(=O)(=O)NCCCNc1cc(N)nc2cc(-c3ccn[nH]3)ccc12` [Compound 215, N-(3-((2-amino-7-(1H-pyrazol-5-yl)quinolin-4-yl)amino)propyl)methanesulfonamide], the EC50 on human TLR8 and at human TLR7 was greater than 100 µM each time. For the same compound, the 50% inhibitory concentration (IC50) in experiment [1] was found to be 1.94 µM.
Take `Nc1cc(CCCO)c2ccc(-n3cccn3)cc2n1` [Compound 216, 3-(2-amino-7-(1H-pyrazol-1-yl)quinolin-4-yl)propan-1-ol]: the EC50 at human TLR8 and on human TLR7 was greater than 100 µM in each case. For the same compound, in experiment [1], the IC50 was found to be 2.23 µM.
With `CC(=O)NCCc1cc(N)nc2cc(-c3ccn[nH]3)ccc12` [Compound 217, N-(2-(2-amino-7-(1H-pyrazol-5-yl)quinolin-4-yl)ethyl)acetamide], the EC50 at human TLR8 and on human TLR7 was greater than 100 µM each time. In addition, in experiment [1], the IC50 turned out to be 14.3 µM.
`Nc1cc(CCCCO)c2ccc(-c3ccn[nH]3)cc2n1` [Compound 218, 4-(2-amino-7-(1H-pyrazol-5-yl)quinolin-4-yl)butan-1-ol]: the EC50 on human TLR8 and on human TLR7 was greater than 100 µM in each case. In experiment [1], the IC50 worked out at 1.19 µM.
For the compound `Nc1cc(CCCO)c2ccc(-c3ccsn3)cc2n1` [Compound 219, 3-(2-amino-7-(isothiazol-3-yl)quinolin-4-yl)propan-1-ol], the EC50 on human TLR8 and on human TLR7 was greater than 100 µM each time. The IC50 in experiment [1] was 2.75 µM.
`Nc1cc(OC[C@@H](O)CO)c2ccc(-c3ccn[nH]3)cc2n1` [Compound 220, (S)-3-((2-amino-7-(1H-pyrazol-5-yl)quinolin-4-yl)oxy)propane-1,2-diol]: the EC50 at human TLR8 and on human TLR7 was greater than 100 µM each time. The IC50 in experiment [1] amounted to 0.57 µM.
In the case of `Nc1cc(OC[C@H](O)CO)c2ccc(-c3ccn[nH]3)cc2n1` [Compound 221], the EC50 at human TLR8 and at human TLR7 was greater than 100 µM throughout. Further, the IC50 in experiment [1] is 0.52 µM.
